{"source": "paper PMC7712428", "about": "“Dimethoate Induces DNA Damage and Mitochondrial Dysfunction Triggering Apoptosis in Rat Bone-Marrow and Peripheral Blood Cells” (Toxics, 2020)", "key": {"Neutrophils": {"system": "Neutrophils", "conditions": "for MMP loss (membrane potential loss): 72 h treatment", "text": "(§1) The experimental animals—Rattus norvegicus (Wistar strain; 8–10 weeks old; 120 ± 20 gm; males only) were acquired from Indian Institute of Integrative Medicine (IIIM-CSIR) (Jammu, India), quarantined, acclimatized and sacrificed as per standard practice conforming to the University Ethical Regulations. After acclimatization, rats were divided into five groups by stratified randomization with five animals per group. […] Distilled water was used to prepare dosing solutions of test agent and injected via intraperitoneal (i.p.) injection. At 24, 48 and 72 h post-dosing, 5 rats per duration were sacrificed and necessary tissues were isolated for different cytogenetic and molecular parameters. For CA assessment, separate experimental lot was used due to colchicine treatment.\n(§2) WBCs were isolated by following the protocol of Lone et al.. Blood was collected in 0.1% EDTA from retro-orbital plexus of rat, followed by incubation for 30 min. 500 µL of blood was then added to a centrifuge tube with 1 mL FACS lysing solution. The blood was incubated for 10 min and centrifuged (2000 rpm, 10 min) at 25 °C. After discarding the supernatant, pellet was washed in 1mL FACS lysing solution followed by centrifuging at 2000 rpm for 5 min. Repeated this step twice and then pellet was put in 500 µL of PBS, leaving only WBCs.\n(§3) Protocol of Majeed and colleagues was employed for flow cytometric measurements of change in Ψm. […] Leukocytes were identified via forward and side scatter."}, "Eosinophils": {"system": "Eosinophils", "conditions": "for MMP loss (membrane potential loss): 72 h treatment", "text": "as §1, §2, §3"}, "bone marrow cells": {"system": "bone marrow cells", "conditions": "for P/N: PCE:NCE ratio", "text": "as §1\nMN assay followed the protocol of Schmid. Immediately after sacrificing the animals, both femurs were removed from the pelvic bone and freed from the extra muscles. After cutting the epiphyses, the bone marrow was collected by gentle flushing with 2 mL FBS. Centrifuge cell suspension at 1000 rpm for 5 min and discarded the supernatant. The pellets obtained were saved in 50 μL fresh FBS. Re-suspended the cell pellet and a small drop was spread onto clean grease-free glass slides and dried in air. By using absolute methanol, the smears were fixed for 10min following the staining by May-Grunwald / buffered Giemsa at pH 6.8. Micronuclei and the ratio of polychromatic erythrocyte (PCE) to normochromatic erythrocyte (NCE) i.e., P/N were scored. The micronucleus frequencies (indicated as mean percent micronucleated cells) were examined by considering the micronucleated PCEs number (MNPCEs) from at least 2000 PCEs/animal. Cytotoxic effect of test compound was evaluated by calculating the PCE:NCE ratio in at least 1000 erythrocytes per animal. For final observation, DPX mounted slides were photographed at 100× with oil immersion (Olympus U—PMTV microscope mounted with optical zoom camera)."}, "peripheral blood cells": {"system": "peripheral blood cells", "conditions": "for Olive Tail Moment / Tail Length (µm): Mean ± SD", "text": "as §1\nDetection of DNA strand break was performed according to protocol of Singh et al. with some modifications. Briefly, blood was collected using Retro-orbital bleeding during euthanasia. 10μL whole blood cells obtained were mixed with 75 µL of 0.5% LMPA and layered onto frosted slides which was pre-coated with NMA. After putting cover slip, slides were kept for 5–10min. After gelling, removed cover slip gently and added a layer of 90 μL of LMPA. After replacing the cover slip, slides were placed on the slide tray (ice packs) till the agarose layer hardened (5–10 min). Following this, removed the cover slip and by gently immersing the slides in lysis buffer embedded cells were lysed. Cells lysis was performed in cold conditions for a minimum of 2 h in lysing solution.\nAlkaline conditions (pH > 13) were used to perform the electrophoresis. After lysis, slides were subjected in electrophoretic buffer at 4 °C for 40 min to achieve the DNA denaturation that allow the DNA unwinding and the expression of alkali labile site. Electrophoresis was then carried out at 0.74 V/cm for 40 min (300 mA; 24 volts) at 4 °C by raising or lowering buffer. Thereafter, neutralization buffer (0.4 M Tris, 10 M HCl; pH = 7.5) were employed to wash the slides. Slides were stained by 80 μL of 1× Ethidium Bromide and excess stain was removed by dipping in chilled distilled water. Slides were examined at 40× magnification under fluorescence microscope coupled with a charge coupled device camera (Olympus)."}, "Platelets": {"system": "Platelets", "conditions": "72 h treatment"}}, "note": "Where “and” joins values, the source holds several entries; their conditions need not be identical. Identical values can stand only once. Like-named read-outs stand apart in the source and are kept apart here. Marks after values point to notes of the source that are not given here."}
{"compound": "CNC(=O)CSP(=S)(OC)OC", "note": "[DM, 0,0- Dimethyl S-(N-methylcarbamoylmethyl) phosphorodithiote]", "values": [{"measurement": "MMP loss (membrane potential loss)", "setting": "Neutrophils; neutrophils", "value": "greater than 90%"}, {"measurement": "maximum MMP loss", "setting": "Neutrophils; neutrophils, initial exposure time", "value": "greater than 30%"}, {"measurement": "MMP loss in neutrophils", "setting": "Neutrophils; range over increased DM doses, initial exposure time", "value": "2–40%"}, {"measurement": "MMP loss", "setting": "Eosinophils; 48 h exposure period (Figure 8)", "value": "around 30%"}, {"measurement": "MMP loss (membrane potential loss)", "setting": "Eosinophils", "value": "greater than 90%"}, {"measurement": "MNPCE (Mean% ± SD)", "setting": "bone marrow cells; 20 mg/kgbw i.p., 24 h", "value": "4.4 ± 0.51", "unit": "%"}, {"measurement": "MNPCE (Mean% ± SD)", "setting": "bone marrow cells; 20 mg/kgbw i.p., 48 h", "value": "4.0 ± 0.44", "unit": "%"}, {"measurement": "MNPCE (Mean% ± SD)", "setting": "bone marrow cells; 20 mg/kgbw i.p., 72 h", "value": "3.6 ± 0.50", "unit": "%"}, {"measurement": "MNPCE (Mean% ± SD)", "setting": "bone marrow cells; 40 mg/kgbw i.p., 24 h", "value": "5.2 ± 0.58", "unit": "%"}, {"measurement": "MNPCE (Mean% ± SD)", "setting": "bone marrow cells; 40 mg/kgbw i.p., 48 h", "value": "4.8 ± 0.86", "unit": "%"}, {"measurement": "MNPCE (Mean% ± SD)", "setting": "bone marrow cells; 40 mg/kgbw i.p., 72 h", "value": "4.1 ± 0.73", "unit": "%"}, {"measurement": "MNPCE (Mean% ± SD)", "setting": "bone marrow cells; 60 mg/kgbw i.p., 24 h", "value": "5.6 ± 0.7", "unit": "%"}, {"measurement": "MNPCE (Mean% ± SD)", "setting": "bone marrow cells; 60 mg/kgbw i.p., 48 h", "value": "4.9 ± 0.74", "unit": "%"}, {"measurement": "MNPCE (Mean% ± SD)", "setting": "bone marrow cells; 60 mg/kgbw i.p., 72 h", "value": "3.8 ± 0.80", "unit": "%"}, {"measurement": "P/N", "setting": "bone marrow cells; 20 mg/kgbw i.p., 24 h", "value": "0.740 *"}, {"measurement": "P/N", "setting": "bone marrow cells; 20 mg/kgbw i.p., 48 h", "value": "0.736 *"}, {"measurement": "P/N", "setting": "bone marrow cells; 20 mg/kgbw i.p., 72 h", "value": "0.731 *"}, {"measurement": "P/N", "setting": "bone marrow cells; 40 mg/kgbw i.p., 24 h", "value": "0.728 *"}, {"measurement": "P/N", "setting": "bone marrow cells; 40 mg/kgbw i.p., 48 h", "value": "0.715 *"}, {"measurement": "P/N", "setting": "bone marrow cells; 60 mg/kgbw i.p., 24 h", "value": "0.725 *"}, {"measurement": "P/N", "setting": "bone marrow cells; 60 mg/kgbw i.p., 48 h", "value": "0.721 *"}, {"measurement": "P/N", "setting": "bone marrow cells; 60 mg/kgbw i.p., 72 h", "value": "0.718 *"}, {"measurement": "Olive Tail Moment", "setting": "peripheral blood cells; 20 mg/kgbw, 24 h", "value": "5.65 ± 0.33 ***^,a"}, {"measurement": "Tail Length (µm)", "setting": "peripheral blood cells; 20 mg/kgbw, 24 h", "value": "22.44 µm and 22.44 ± 2.07 ***^,a µm"}, {"measurement": "Olive Tail Moment", "setting": "peripheral blood cells; 20 mg/kgbw, 48 h", "value": "4.01 ± 0.48 ***^,a"}, {"measurement": "Tail Length (µm)", "setting": "peripheral blood cells; 20 mg/kgbw, 48 h", "value": "19.26 ± 1.00 *^,a µm"}, {"measurement": "Olive Tail Moment", "setting": "peripheral blood cells; 20 mg/kgbw, 72 h", "value": "2.71 ± 0.31 *^,a"}, {"measurement": "Tail Length (µm)", "setting": "peripheral blood cells; 20 mg/kgbw, 72 h", "value": "16.16 ± 1.35 *^,a µm"}, {"measurement": "Tail Length (µm)", "setting": "peripheral blood cells; 40 mg/kgbw, 24 h", "value": "24.37 ± 1.66 ***^,a,b µm"}, {"measurement": "Olive Tail Moment", "setting": "peripheral blood cells; 40 mg/kgbw, 48 h", "value": "5.35 ± 0.48 ***^,a,*^,b"}, {"measurement": "Tail Length (µm)", "setting": "peripheral blood cells; 40 mg/kgbw, 48 h", "value": "25.07 ± 1.87 ***^,a,b µm"}, {"measurement": "Olive Tail Moment", "setting": "peripheral blood cells; 40 mg/kgbw, 72 h", "value": "3.13 ± 0.28 *^,a"}, {"measurement": "Tail Length (µm)", "setting": "peripheral blood cells; 40 mg/kgbw, 72 h", "value": "21.12 ± 1.45 ***^,a µm"}, {"measurement": "Tail Length (µm)", "setting": "peripheral blood cells; 60 mg/kgbw, 24 h", "value": "30.09 µm and 30.09 ± 2.86 ***^,a,b µm"}, {"measurement": "Olive Tail Moment", "setting": "peripheral blood cells; 60 mg/kgbw, 48 h", "value": "6.46 ± 0.64 ***^,a,b,c"}, {"measurement": "Tail Length (µm)", "setting": "peripheral blood cells; 60 mg/kgbw, 48 h", "value": "27.63 ± 3.12 ***^,a,c,**^,b µm"}, {"measurement": "Olive Tail Moment", "setting": "peripheral blood cells; 60 mg/kgbw, 72 h", "value": "4.84 ± 0.41 **^,a"}, {"measurement": "Tail Length (µm)", "setting": "peripheral blood cells; 60 mg/kgbw, 72 h", "value": "20.37 ± 1.59 *^,a,c µm"}, {"measurement": "increase of OTM vis-a-vis negative control", "setting": "peripheral blood cells; single dose of 10 mg DM/kgbw, 24 h", "value": "~5", "unit": "fold"}, {"measurement": "MMP loss (membrane potential loss)", "setting": "Platelets", "value": "greater than 90%"}]}
{"compound": "O=P1(N(CCCl)CCCl)NCCCO1", "note": "(centres unmarked) [Cyclophosphamide, reference compound]", "values": [{"measurement": "P9: percentage of reduced mitochondrial membrane potential (MMP loss)", "setting": "Neutrophils; Figure 7, one experiment, Positive Control", "value": 10.9, "unit": "%"}, {"measurement": "MMP loss (membrane potential loss)", "setting": "Neutrophils; neutrophils", "value": 93.2, "unit": "%"}, {"measurement": "MMP loss (membrane potential loss)", "setting": "Eosinophils", "value": 54, "unit": "%"}, {"measurement": "MNPCE (Mean% ± SD)", "setting": "bone marrow cells; 40 mg/kgbw i.p., 24 h", "value": "10.6 ± 0.81", "unit": "%"}, {"measurement": "MNPCE (Mean% ± SD)", "setting": "bone marrow cells; 40 mg/kgbw i.p., 48 h", "value": "8.2 ± 0.66", "unit": "%"}, {"measurement": "MNPCE (Mean% ± SD)", "setting": "bone marrow cells; 40 mg/kgbw i.p., 72 h", "value": "7.1 ± 0.43", "unit": "%"}, {"measurement": "P/N", "setting": "bone marrow cells; 40 mg/kgbw i.p., 24 h", "value": "0.604 *"}, {"measurement": "P/N", "setting": "bone marrow cells; 40 mg/kgbw i.p., 48 h", "value": "0.529 **"}, {"measurement": "P/N", "setting": "bone marrow cells; 40 mg/kgbw i.p., 72 h", "value": "0.581 **"}, {"measurement": "Olive Tail Moment", "setting": "peripheral blood cells; 40 mg/kgbw, 24 h", "value": "12.52 ± 0.81 ***^,a"}, {"measurement": "Tail Length (µm)", "setting": "peripheral blood cells; 40 mg/kgbw, 24 h", "value": "51.01 ± 3.71 ***^,a µm"}, {"measurement": "Olive Tail Moment", "setting": "peripheral blood cells; 40 mg/kgbw, 48 h", "value": "11.28 ± 0.84 ***^,a"}, {"measurement": "Tail Length (µm)", "setting": "peripheral blood cells; 40 mg/kgbw, 48 h", "value": "40.91 ± 2.86 ***^,a µm"}, {"measurement": "Olive Tail Moment", "setting": "peripheral blood cells; 40 mg/kgbw, 72 h", "value": "8.23 ± 0.73 ***^,a"}, {"measurement": "Tail Length (µm)", "setting": "peripheral blood cells; 40 mg/kgbw, 72 h", "value": "38.51 ± 1.05 ***^,a µm"}, {"measurement": "MMP loss (membrane potential loss)", "setting": "Platelets", "value": 81.1, "unit": "%"}]}
